Test results published in patent US20110166194A1, “Asenapine Prodrugs” (Alkermes, Inc., priority 2010, published 2011).

Tests used:
[1] = Pharmacokinetic evaluation of asenapine and asenapine prodrugs in rats; format: in vivo, Sprague-Dawley rats; conditions: rat plasma, 10 mg/rat IM, suspension in 1% HPMC in PBS saline with 0.2% Tween pH 6.0; FIG. 3
Method: Animals: 18 Male Sprague-Dawley rats (Charles River Laboratories, Wilmington, Mass.) were used in the study. Three groups of 6 rats were used and are referred to in this study as Groups A, B and C. Rats were approximately 350-375 g at time of arrival. Rats are housed 2 per cage with ad libitum chow and water. Environmental conditions in the housing room: 64-67° F., 30% to 70% relative humidity, and 12:12-h light:dark cycle. All experiments were approved by the institutional animal care and use committee.
Test Compounds: The following formulations of Asenapine parent drug and prodrug compounds of the invention were used in the study.
Pharmacokinetics study: Rats were dosed IM by means of a 23 gauge, 1 in. needle with 1 cc syringe 0.3 mL suspension was withdrawn from the vial containing the test compound. The rat was injected in the muscles of the hind limb after anesthesia with isoflourane. Blood samples were collected via a lateral tail vein after brief anesthesia with Isoflurane. A 27½G needle and 1 cc syringe without an anticoagulant was used for the blood collection. […]
Data Analysis: Drug concentrations in plasma samples were analyzed by liquid chromatography—mass spectroscopy using appropriate parameters for each compound. Half-life, volume of distribution, clearance, maximal concentration, and AUC were calculated by using WinNonlin version 5.2 software (Pharsight, St. Louis, Mo.).

[2] = test system: muscarinic receptors; conditions: background; cited from earlier work
[3] = test system: serotonergic (5-HT2A, 5-HT2C, 5-HT6, 5-HTS), noradrenergic (α2A, α2B, α2C) and dopaminergic (D3, D4) receptors; conditions: background; cited from earlier work
[4] = Solution stability of asenapine prodrugs as a function of pH; format: physicochemical; conditions: 0.01M buffers pH 2.11-9.01, 25° C., HPLC after 1, 4, 10 and 24 hours; FIG. 1 and 2
Method: The asenapine derived prodrugs were prepared at approximately 300 ug/mL in buffers (see table of buffers below). The initial ratio of prodrug/parent was measured using a freshly prepared solution in unbuffered water. Acetonitrile was titrated into all samples as needed to ensure the complete dissolution of the compounds. The amount of acetonitrile varied depending on the solubility of each compound (see Note 1). 1.5 mL of each stability sample was transferred into a HPLC vial and the vials were maintained at 25° C. in the temperature controlled sample compartment of the HPLC. Each sample was assayed by HPLC after 1, 4, 10, and 24 hours for prodrug and asenapine content (see Note 2).
The fraction of prodrug remaining at each time point was calculated as;
Fraction Prodrug=(HPLC Area of Prodrug)/(HPLC area of prodrug+asenapine) (see Note 3).
The loss of prodrug was then fit to the equation for first order decay:
Fraction Prodrug=(Initial Fraction prodrug)*e^−kt
where t=time (in hours) and k is the rate constant for decay. Finally, the half-lives are were calculated as
Note 1: The acetonitrile concentration is not expected to have a large impact on the degradation rate since the rate follows first order decay with respect to compound (ie, the rate constant is independent of the concentration). […]

For `CCC(C)(C)C(=O)OC[N+]1(C)CC2c3ccccc3Oc3ccc(Cl)cc3C2C1.[I-]` (stereo not shown) [ASN-83, Asenapine dimethyl butyrate prodrug], the Cmax [1] was “lower than the Cmax of the parent Asenapine formulation as well as lower than that of the Asenapine palmitate prodrug (ASN-76)”.
For `CN1CC2c3ccccc3Oc3ccc(Cl)cc3C2C1` (stereo not shown) [Asenapine], the Affinity [2] is given as “minimal affinity” and the “Affinity relative to D2 receptors” value [3] is given as “higher affinity”.
For `CC(C)(C)C(=O)OC[N+]1(C)CC2c3ccccc3Oc3ccc(Cl)cc3C2C1.[Cl-]` (stereo not shown) [asenapine pivalate], the “Solution stability (loss of prodrug to asenapine)” value [4] was “more stable than the asenapine octanoate”.
